Results from PMC5218480 (PLoS ONE, 2017).

Test system: MV-4-11 cells
Experiment: Gene expression microarray analysis (Affymetrix PrimeView) and GSEA
Assay type: cell-based, human
Details: gene FGFR1OP; ACY-1035 1 mM; LIST F

## Nc1ccc(-c2cccs2)cc1NC(=O)c1ccc2c(c1)cc(C1CC1)n2CCN1CCOCC1 [ACY-1035]
  RFU, FGFR1OP (ProbeSet 11751329_s_at): 243.91 RFU
